How the values were obtained:
TLR9 = TLR9 (Mus musculus (Mouse), UniProt Q9EQU3); assay: In vivo TLR knockdown: serum IL-12 after CpG ODN 1668 TLR9 agonist injection in C57Bl/6J mice; conditions: male C57Bl/6J mice; single intraperitoneal dose; CpG ODN 1668 i.p. 1 hr later; serum IL-12 ELISA 3 hours post agonist
Procedure: The Effects of Test Articles on Toll-Like Receptor (TLR) Knockdown Following a Single Intraperitoneal Dose to Male C57Bl/6 Mice.
Toll-Like Receptor (TLR) knockdown effect of test articles was evaluated in a C57Bl/6J mouse. Primary end points included a terminal blood collection for analysis of cytokine production in response to CpG-DNA TLR9 agonist injection. Male C57Bl/6J mice, at ˜8 weeks of age from Jackson Laboratories were used. Test groups were 3 mice per treatment group and the groups were administered test article in a series of descending doses within the range of 400 μg to 10 μg. Test article treatment was dosed at T=0 hr by intraperitoneal injection. Agonist (CpG ODN 1668) treatment was dosed one hour later, T=1 hr by intraperitoneal injection. Necropsy was performed 3 hours post agonist treatment, T=4 hr. Blood samples were collected into serum separator tubes, allowed to clot at room temperature for at least 20 minutes, centrifuged at ambient temperature at 3000 g for 10 minutes, and the serum was extracted. ELISA was performed to determine murine IL-12 levels following manufacture's protocol (BioLegend Inc.). Serum IL-12 levels were calculated and plotted versus administered dose of antagonist and inhibitory dose at 50% (ID50) was determined.

human TLR9 (hTLR9) = human TLR9 (hTLR9) (Homo sapiens (Human), UniProt Q9NR96); assay: TLR9 antagonist assay in HEK-Blue-hTLR9 cells (SEAP reporter, ODN 2006 agonist); format: cell-based; conditions: inhibition of hTLR9 dependent SEAP production, hTLR9 agonist such as ODN 2006, 1 μM, read-out: hTLR9 antagonism IC50
Excerpt: HEK-Blue™-hTLR9 cells were obtained from InvivoGen Inc. and used to determine test compound antagonism of human TLR9 (hTLR9) driven responses. HEK-Blue™-hTLR9 cells are designed for studying the stimulation of human TLR9 by monitoring the activation of NF-kB. As described by the manufacturer, “HEK-Blue™-hTLR9 cells were obtained by co-transfection of the hTLR9 gene and an optimized secreted embryonic alkaline phosphatase (SEAP) reporter gene into HEK293 cells. The SEAP reporter gene is placed under the control of the IFN-b minimal promoter fused to five NF-kB and AP-1 binding sites. Stimulation with a TLR9 ligand activates NF-kB and AP-1 which induces the production of SEAP. Levels of SEAP can be easily determined with QUANTI-Blue™ a detection medium that turns purple/blue in the presence of alkaline phosphatase”. […]
Invivogen's QUANTI-Blue™ was prepared following the manufacturer's instructions. […] SEAP levels were determined using a spectrophotometer at 620 nm.
The concentration dependent inhibition of hTLR9 dependent SEAP production was expressed as the concentration of compound which produced half the maximal level of SEAP induced by the hTLR agonist alone. Percent activity was calculated for each observation using the formula: % activity=((observed O.D.−background O.D.)/(agonist only O.D.−background O.D.))*100. […]

Chain of human TLR9 (hTLR9) (Q9NR96 26-1032): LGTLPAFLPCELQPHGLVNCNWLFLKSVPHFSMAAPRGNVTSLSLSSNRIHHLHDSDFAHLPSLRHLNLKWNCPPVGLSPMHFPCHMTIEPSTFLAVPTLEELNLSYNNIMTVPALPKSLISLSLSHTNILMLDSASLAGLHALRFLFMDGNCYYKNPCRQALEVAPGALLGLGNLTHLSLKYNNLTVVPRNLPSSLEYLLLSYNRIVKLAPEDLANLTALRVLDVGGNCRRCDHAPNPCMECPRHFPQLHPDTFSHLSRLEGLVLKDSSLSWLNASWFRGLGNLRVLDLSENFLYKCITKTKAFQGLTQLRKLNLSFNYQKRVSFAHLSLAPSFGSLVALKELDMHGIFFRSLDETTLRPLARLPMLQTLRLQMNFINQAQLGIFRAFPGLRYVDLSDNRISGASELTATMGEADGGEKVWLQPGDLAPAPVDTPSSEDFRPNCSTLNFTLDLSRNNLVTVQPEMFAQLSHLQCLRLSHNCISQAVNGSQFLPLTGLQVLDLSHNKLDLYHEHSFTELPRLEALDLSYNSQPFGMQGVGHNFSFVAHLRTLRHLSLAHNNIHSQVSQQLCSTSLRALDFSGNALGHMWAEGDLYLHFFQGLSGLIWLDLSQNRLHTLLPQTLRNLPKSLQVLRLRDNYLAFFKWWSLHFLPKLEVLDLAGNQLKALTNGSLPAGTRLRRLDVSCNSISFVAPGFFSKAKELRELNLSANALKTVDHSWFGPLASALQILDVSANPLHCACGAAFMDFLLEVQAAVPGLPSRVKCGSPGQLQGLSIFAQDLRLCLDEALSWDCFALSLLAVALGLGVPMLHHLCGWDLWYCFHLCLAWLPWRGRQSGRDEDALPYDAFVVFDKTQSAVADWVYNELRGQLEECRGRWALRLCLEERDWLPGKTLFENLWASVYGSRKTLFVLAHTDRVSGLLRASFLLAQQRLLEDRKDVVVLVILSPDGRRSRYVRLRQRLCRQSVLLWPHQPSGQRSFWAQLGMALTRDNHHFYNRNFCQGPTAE
Chain of TLR9 (Q9EQU3 26-1032): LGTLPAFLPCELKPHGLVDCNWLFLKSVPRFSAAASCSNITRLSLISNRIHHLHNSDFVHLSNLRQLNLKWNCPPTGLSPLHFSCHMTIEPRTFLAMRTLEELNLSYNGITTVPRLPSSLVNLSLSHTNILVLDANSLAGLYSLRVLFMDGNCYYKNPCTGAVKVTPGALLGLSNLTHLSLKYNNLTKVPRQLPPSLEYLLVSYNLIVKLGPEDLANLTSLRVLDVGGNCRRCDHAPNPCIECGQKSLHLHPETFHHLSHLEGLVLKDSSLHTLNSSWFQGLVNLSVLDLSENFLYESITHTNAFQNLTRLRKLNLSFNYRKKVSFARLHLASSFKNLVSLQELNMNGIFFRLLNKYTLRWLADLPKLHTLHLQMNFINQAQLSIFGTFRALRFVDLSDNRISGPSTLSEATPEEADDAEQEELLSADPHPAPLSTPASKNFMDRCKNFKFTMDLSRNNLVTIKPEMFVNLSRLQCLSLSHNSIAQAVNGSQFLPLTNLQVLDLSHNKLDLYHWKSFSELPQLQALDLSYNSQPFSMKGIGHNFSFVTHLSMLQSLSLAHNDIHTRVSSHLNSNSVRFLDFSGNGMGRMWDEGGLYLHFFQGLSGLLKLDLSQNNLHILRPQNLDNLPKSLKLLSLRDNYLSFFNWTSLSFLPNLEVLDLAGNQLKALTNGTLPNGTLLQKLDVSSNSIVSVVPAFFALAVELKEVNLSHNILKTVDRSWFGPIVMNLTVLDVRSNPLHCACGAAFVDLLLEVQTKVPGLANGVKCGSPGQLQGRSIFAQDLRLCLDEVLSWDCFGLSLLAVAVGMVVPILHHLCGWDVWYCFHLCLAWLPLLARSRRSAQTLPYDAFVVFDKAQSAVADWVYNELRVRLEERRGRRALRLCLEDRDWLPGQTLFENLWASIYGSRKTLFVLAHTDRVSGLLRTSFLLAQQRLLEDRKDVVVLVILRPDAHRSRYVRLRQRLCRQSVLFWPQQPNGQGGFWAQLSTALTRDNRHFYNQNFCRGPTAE

Row | Structure (SMILES) | In vivo TLR antagonism ID50 (inhibitory dose at 50% of serum IL-12) (TLR9) [µg] | IC50 (human TLR9 (hTLR9)) [nM]
1 | CN1CCN(CCNc2nc(-c3ccccc3)nc3c2nc(O)n3CCN2CCOCC2)CC1 [Example 57] | 348 | 271
2 | CN1CCN(CCn2c(O)nc3c(NCCN4CCOCC4)nc(-c4ccccc4)nc32)CC1 [Example 63] |  | 497

Source: patent publication US9353115B2, “Immune system modulators” (JANUS BIOTHERAPEUTICS, INC., priority 2011, dated 2016)
